These results are taken from ChEMBL document CHEMBL5346973 (J Med Chem, 2023).

Activity calls are given as the source filed them. No cut-off for these calls is given here.

Data set [1] in a line: Stability of the compound in human serum assessed as compound remaining after 6 hr by UPLC analysis. Format: ADME, cell-free.
Data set [2] deals with Nicotinic acetylcholine receptor alpha9/alpha10 (Rattus norvegicus, UniProt P43144+Q9JLB5). Description: Antagonist activity at rat alpha9alpha10 nACh receptor expressed in Xenopus oocyte assessed as inhibition of acetylcholine-induced response at -70 mV holding potential by voltage-clamp based electrophysiological assay. It is filed as cell-based.
The target of data set [3] is Neuronal acetylcholine receptor subunit alpha-7 (Rattus norvegicus, UniProt Q05941). Description: Antagonist activity at rat alpha7 nACh receptor expressed in Xenopus oocyte assessed as inhibition of acetylcholine-induced response at -70 mV holding potential by voltage-clamp based electrophysiological assay. Format: cell-based.
Data set [4] has as its target Neuronal acetylcholine receptor; alpha9/alpha10 (Homo sapiens, UniProt Q9GZZ6+Q9UGM1). Description: Antagonist activity at human alpha9alpha10 nACh receptor expressed in Xenopus oocyte assessed as inhibition of acetylcholine-induced response at -70 mV holding potential by voltage-clamp based electrophysiological assay. It is filed as cell-based.
The target of data set [5] is Neuronal acetylcholine receptor; alpha2/beta2 (Rattus norvegicus, UniProt P12389+P12390). Description: Antagonist activity at rat alpha2beta2 nACh receptor expressed in Xenopus oocyte assessed as inhibition of acetylcholine-induced response at -70 mV holding potential by voltage-clamp based electrophysiological assay. It is filed as cell-based.
The target of data set [6] is Neuronal acetylcholine receptor; alpha2/beta4 (Rattus norvegicus, UniProt P12389+P12392). Kind of data set: Antagonist activity at rat alpha2beta4 nACh receptor expressed in Xenopus oocyte assessed as inhibition of acetylcholine-induced response at -70 mV holding potential by voltage-clamp based electrophysiological assay. It is filed as cell-based.
Data set [7] concerns the target Neuronal acetylcholine receptor; alpha3/beta4 (Rattus norvegicus, UniProt P04757+P12392). Description: Antagonist activity at rat alpha3beta4 nACh receptor expressed in Xenopus oocyte assessed as inhibition of acetylcholine-induced response at -70 mV holding potential by voltage-clamp based electrophysiological assay. It is filed as cell-based.
For data set [8], the target named is Neuronal acetylcholine receptor; alpha4/beta2 (Rattus norvegicus, UniProt P09483+P12390). Description: Antagonist activity at rat alpha4beta2 nACh receptor expressed in Xenopus oocyte assessed as inhibition of acetylcholine-induced response at -70 mV holding potential by voltage-clamp based electrophysiological assay. It is filed as cell-based.
Data set [9] has as its target Neuronal acetylcholine receptor; alpha4/beta4 (Rattus norvegicus, UniProt P09483+P12392). Description: Antagonist activity at rat alpha4beta4 nACh receptor expressed in Xenopus oocyte assessed as inhibition of acetylcholine-induced response at -70 mV holding potential by voltage-clamp based electrophysiological assay. It is filed as cell-based.
Data set [10] has as its target Nicotinic acetylcholine receptor alpha9/alpha10 (Rattus norvegicus) (UniProt P43144+Q9JLB5). Kind of data set: Antagonist activity at rat alpha9alpha10 nACh receptor expressed in Xenopus oocyte assessed as inhibition of acetylcholine-induced response at -70 mV holding potential by measuring recovery at 10 nM after 5 mins by voltage-clamp based electrophysiological assay relative to control. It is filed as cell-based. Conditions: filed as antagonist.

For data set [11], the target named is T1, Neuronal acetylcholine receptor; alpha9/alpha10 (Homo sapiens) (UniProt Q9UGM1+Q9GZZ6). Description: Antagonist activity at human alpha9alpha10 nACh receptor expressed in Xenopus oocyte assessed as inhibition of acetylcholine-induced response at -70 mV holding potential by measuring leftward shit in concentration response curve at 10 nM by voltage-clamp based electrophysiological assay. Format: cell-based. Conditions: filed as antagonist.

The target of data set [12] is Neuronal acetylcholine receptor; alpha3/beta2 (Rattus norvegicus, UniProt P04757+P12390). Kind of data set: Antagonist activity at rat alpha3beta2 nACh receptor expressed in Xenopus oocyte assessed as inhibition of acetylcholine-induced response at -70 mV holding potential by voltage-clamp based electrophysiological assay. It is filed as cell-based.
Data set [13] has as its target T1, Neuronal acetylcholine receptor; alpha9/alpha10 (Homo sapiens). Kind of data set: Antagonist activity at human alpha9alpha10 nACh receptor expressed in Xenopus oocyte assessed as inhibition of acetylcholine-induced response at -70 mV holding potential by measuring current response at 10 nM by voltage-clamp based electrophysiological assay. Format: cell-based. Conditions: filed as antagonist.

The target in data set [14] is Nicotinic acetylcholine receptor alpha6/alpha3/beta4 (Rattus norvegicus, UniProt P04757+P12392+P43143). Kind of data set: Antagonist activity at rat alpha6/alpha3beta4 nACh receptor expressed in Xenopus oocyte assessed as inhibition of acetylcholine-induced response at -70 mV holding potential by voltage-clamp based electrophysiological assay. It is filed as cell-based.

A short description of data set [15]: Selectivity ratio of IC50 for human alpha9alpha10 nACh receptor to IC50 for rat alpha9alpha10 nACh receptor.

Usually IC50 stands for the midpoint of a concentration-inhibition curve. As usually defined, the inhibition is the share of the control response that was lost under treatment.

Sequence of Nicotinic acetylcholine receptor alpha9/alpha10 (P43144 whole entry): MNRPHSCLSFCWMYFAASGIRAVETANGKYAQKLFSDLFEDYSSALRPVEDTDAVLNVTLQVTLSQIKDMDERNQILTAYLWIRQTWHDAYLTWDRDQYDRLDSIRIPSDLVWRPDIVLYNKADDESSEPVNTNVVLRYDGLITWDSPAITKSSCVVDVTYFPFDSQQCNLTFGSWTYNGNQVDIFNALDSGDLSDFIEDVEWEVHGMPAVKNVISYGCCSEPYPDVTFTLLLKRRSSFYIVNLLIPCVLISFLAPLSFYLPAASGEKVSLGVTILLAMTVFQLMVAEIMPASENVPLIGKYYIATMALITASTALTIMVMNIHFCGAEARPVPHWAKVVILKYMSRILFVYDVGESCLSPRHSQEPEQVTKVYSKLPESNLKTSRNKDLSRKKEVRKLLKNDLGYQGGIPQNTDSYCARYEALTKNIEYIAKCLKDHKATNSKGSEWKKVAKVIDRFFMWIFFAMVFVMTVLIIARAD
Sequence of Nicotinic acetylcholine receptor alpha9/alpha10 (Q9JLB5 whole entry): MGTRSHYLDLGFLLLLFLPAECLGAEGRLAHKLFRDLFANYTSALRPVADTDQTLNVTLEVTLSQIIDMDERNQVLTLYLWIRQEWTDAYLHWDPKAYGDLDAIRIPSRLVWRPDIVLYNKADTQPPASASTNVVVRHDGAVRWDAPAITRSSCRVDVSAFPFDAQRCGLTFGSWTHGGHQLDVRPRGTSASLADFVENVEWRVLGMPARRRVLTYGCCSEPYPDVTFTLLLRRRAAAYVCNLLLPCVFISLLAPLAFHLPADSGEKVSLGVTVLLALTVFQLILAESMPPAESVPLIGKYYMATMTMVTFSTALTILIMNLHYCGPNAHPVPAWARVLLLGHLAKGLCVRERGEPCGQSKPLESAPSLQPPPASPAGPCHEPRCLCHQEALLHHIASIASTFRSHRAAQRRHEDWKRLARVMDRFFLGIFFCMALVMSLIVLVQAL
Sequence of Neuronal acetylcholine receptor subunit alpha-7 (Q05941 whole entry): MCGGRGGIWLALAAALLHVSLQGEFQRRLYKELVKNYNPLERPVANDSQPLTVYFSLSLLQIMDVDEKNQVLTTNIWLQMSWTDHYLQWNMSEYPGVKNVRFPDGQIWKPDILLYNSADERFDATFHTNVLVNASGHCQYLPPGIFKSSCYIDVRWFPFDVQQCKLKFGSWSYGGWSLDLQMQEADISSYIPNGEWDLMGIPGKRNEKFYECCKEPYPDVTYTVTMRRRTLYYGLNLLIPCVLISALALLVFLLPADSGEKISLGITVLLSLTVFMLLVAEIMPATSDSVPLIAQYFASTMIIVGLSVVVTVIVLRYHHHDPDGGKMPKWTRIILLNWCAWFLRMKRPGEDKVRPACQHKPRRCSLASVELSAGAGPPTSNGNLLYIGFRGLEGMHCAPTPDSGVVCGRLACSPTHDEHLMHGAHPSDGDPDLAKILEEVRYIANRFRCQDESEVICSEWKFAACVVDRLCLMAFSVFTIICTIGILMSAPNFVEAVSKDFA
Sequence of Neuronal acetylcholine receptor; alpha9/alpha10 (Q9UGM1 whole entry): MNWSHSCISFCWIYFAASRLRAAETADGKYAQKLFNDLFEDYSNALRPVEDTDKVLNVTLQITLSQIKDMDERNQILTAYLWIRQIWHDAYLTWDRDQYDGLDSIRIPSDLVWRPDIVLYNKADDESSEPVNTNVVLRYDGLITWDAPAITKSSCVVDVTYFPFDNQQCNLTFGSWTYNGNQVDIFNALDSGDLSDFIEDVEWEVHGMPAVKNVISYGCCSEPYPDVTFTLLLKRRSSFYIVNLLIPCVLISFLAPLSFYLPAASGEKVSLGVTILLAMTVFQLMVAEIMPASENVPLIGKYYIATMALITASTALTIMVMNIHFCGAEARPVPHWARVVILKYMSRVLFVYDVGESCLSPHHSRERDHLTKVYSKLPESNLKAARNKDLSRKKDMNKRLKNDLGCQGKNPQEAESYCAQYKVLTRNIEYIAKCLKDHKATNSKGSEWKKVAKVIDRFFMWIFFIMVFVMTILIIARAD
Sequence of Neuronal acetylcholine receptor; alpha9/alpha10 (Q9GZZ6 whole entry): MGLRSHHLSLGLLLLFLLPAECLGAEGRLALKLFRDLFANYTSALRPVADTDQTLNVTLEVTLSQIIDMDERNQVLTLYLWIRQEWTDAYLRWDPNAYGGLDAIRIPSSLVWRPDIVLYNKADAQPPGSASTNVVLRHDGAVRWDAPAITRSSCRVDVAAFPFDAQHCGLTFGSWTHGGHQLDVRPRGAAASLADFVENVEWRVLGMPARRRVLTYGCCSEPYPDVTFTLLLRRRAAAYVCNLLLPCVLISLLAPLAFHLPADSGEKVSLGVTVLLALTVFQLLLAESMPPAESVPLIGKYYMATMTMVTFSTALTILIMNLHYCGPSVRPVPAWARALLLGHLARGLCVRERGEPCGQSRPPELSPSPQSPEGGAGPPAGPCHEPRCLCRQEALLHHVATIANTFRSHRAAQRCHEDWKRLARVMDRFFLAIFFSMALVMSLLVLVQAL
Sequence of Neuronal acetylcholine receptor; alpha2/beta2 (P12389 whole entry): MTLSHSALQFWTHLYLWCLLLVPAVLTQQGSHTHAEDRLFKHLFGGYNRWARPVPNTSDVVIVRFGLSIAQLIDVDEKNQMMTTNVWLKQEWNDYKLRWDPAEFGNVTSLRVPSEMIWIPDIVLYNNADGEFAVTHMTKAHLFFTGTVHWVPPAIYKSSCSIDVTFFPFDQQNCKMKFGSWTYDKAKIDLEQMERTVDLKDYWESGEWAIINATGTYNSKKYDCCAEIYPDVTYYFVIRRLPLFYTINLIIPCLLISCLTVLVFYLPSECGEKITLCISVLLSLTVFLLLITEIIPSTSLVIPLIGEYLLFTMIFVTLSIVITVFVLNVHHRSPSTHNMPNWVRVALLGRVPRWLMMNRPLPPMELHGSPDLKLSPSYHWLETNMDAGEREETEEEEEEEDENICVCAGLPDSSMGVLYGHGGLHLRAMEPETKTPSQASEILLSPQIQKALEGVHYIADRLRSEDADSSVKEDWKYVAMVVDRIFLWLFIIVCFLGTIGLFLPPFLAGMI
Sequence of Neuronal acetylcholine receptor; alpha2/beta2 (P12390 whole entry): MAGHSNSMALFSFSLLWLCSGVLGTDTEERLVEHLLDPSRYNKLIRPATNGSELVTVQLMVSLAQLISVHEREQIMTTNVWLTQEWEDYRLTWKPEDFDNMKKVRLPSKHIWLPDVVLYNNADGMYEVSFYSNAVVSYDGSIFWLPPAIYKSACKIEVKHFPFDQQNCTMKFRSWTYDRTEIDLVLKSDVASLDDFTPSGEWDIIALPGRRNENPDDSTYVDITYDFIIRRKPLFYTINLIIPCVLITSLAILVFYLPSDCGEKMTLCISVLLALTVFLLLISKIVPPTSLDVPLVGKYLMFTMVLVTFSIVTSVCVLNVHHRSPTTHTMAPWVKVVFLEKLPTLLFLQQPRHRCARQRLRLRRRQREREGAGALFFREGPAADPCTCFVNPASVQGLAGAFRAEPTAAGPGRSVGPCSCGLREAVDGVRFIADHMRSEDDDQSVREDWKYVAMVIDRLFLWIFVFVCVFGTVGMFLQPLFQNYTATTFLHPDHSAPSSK
Sequence of Neuronal acetylcholine receptor; alpha2/beta4 (P12389 whole entry): as the sequence (P12389 whole entry) above
Sequence of Neuronal acetylcholine receptor; alpha2/beta4 (P12392 whole entry): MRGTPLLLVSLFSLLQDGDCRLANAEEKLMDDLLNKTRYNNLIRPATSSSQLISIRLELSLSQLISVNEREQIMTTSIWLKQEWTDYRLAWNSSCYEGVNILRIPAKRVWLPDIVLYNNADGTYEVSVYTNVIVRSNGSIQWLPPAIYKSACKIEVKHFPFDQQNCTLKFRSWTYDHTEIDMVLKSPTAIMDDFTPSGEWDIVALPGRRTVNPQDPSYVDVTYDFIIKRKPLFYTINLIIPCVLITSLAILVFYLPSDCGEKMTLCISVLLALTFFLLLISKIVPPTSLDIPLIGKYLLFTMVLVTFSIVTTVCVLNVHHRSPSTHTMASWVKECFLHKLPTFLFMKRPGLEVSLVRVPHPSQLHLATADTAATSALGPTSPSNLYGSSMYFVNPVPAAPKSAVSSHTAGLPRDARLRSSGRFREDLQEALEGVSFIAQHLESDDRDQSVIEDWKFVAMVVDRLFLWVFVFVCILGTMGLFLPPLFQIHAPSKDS
Sequence of Neuronal acetylcholine receptor; alpha4/beta4 (P09483 whole entry): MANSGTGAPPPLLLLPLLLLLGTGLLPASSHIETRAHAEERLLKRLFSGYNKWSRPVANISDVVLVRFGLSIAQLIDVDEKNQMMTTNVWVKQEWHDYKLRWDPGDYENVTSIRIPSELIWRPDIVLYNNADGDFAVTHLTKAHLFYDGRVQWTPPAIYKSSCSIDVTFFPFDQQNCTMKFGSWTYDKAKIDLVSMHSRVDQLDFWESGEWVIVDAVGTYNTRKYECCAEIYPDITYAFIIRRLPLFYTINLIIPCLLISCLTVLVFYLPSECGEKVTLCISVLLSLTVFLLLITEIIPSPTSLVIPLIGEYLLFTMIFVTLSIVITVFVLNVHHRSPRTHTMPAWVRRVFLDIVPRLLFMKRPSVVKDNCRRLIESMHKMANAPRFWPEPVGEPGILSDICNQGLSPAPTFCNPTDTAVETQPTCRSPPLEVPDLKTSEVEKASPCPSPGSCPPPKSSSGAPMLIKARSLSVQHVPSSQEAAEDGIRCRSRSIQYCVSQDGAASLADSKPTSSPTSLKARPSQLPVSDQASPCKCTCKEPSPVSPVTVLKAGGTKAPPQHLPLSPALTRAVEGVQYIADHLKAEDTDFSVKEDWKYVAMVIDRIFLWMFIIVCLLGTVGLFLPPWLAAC
Sequence of Neuronal acetylcholine receptor; alpha4/beta4 (P12392 whole entry): as the sequence (P12392 whole entry) above
Sequence of Neuronal acetylcholine receptor; alpha4/beta2 (P09483 whole entry): as the sequence (P09483 whole entry) above
Sequence of Neuronal acetylcholine receptor; alpha4/beta2 (P12390 whole entry): as the sequence (P12390 whole entry) above

As for `CC[C@H](C)[C@@H]1NC(=O)[C@H](CCCNC(=N)N)NC(=O)[C@H](CCCNC(=N)N)NC(=O)[C@@H](NC(=O)[C@H](Cc2ccc(O)cc2)NC(=O)[C@H](CCCNC(=N)N)NC(=O)[C@H](C)NC(=O)[C@H](CCCNC(=N)N)NC(=O)[C@H](CCCNC(=N)N)NC(=O)[C@H](CC(=O)O)NC(=O)[C@H](Cc2ccc(O)cc2)NC(=O)[C@@H]2CCCN2C(=O)[C@H](CO)NC(=O)[C@H](CCCNC(=N)N)NC(=O)[C@@H]2CSSC[C@H](NC(=O)[C@@H](N)[C@@H](C)O)C(=O)N[C@@H](CCCNC(=N)N)C(=O)N[C@@H](CO)C(=O)N[C@@H](CO)C(=O)NCC(=O)N[C@@H](CCCNC(=N)N)C(=O)N[C@@H](Cc3ccc(O)cc3)C(=O)N2)CSSC[C@@H](C(=O)N[C@H](C(=O)O)C(C)C)NC(=O)[C@H](C)NC(=O)[C@H](CC(=O)O)NC(=O)[C@H]([C@@H](C)O)NC1=O`, the Stability result in data set [1] is “Stable”. Also, the figures for the IC50 in data set [2] and in data set [3] were 27 nM and 4480 nM, respectively.
For `CC(C)[C@H](NC(=O)[C@@H]1CSSC[C@H](NC(=O)[C@@H](N)[C@@H](C)O)C(=O)N[C@@H](CCCNC(=N)N)C(=O)N[C@@H](CO)C(=O)N[C@@H](CO)C(=O)NCC(=O)N[C@@H](CCCNC(=N)N)C(=O)N[C@@H](Cc2ccc(O)cc2)C(=O)N[C@H]2CSSC[C@H](NC(=O)[C@H](Cc3ccc(O)cc3)NC(=O)[C@H](CCCNC(=N)N)NC(=O)[C@H](CCCNC(=N)N)NC(=O)[C@H](CCCNC(=N)N)NC(=O)[C@H](CCCNC(=N)N)NC(=O)[C@H](CC(=O)O)NC(=O)[C@H](Cc3ccc(O)cc3)NC(=O)[C@@H]3CCCN3C(=O)[C@H](CO)NC(=O)[C@H](CCCNC(=N)N)NC2=O)C(=O)N[C@@H](CCCNC(=N)N)C(=O)N[C@@H](CCCNC(=N)N)C(=O)N[C@@H](C)C(=O)N[C@@H]([C@@H](C)O)C(=O)N[C@@H](CC(=O)O)C(=O)N[C@@H](C)C(=O)N1)C(=O)O`, the IC50 worked out at 11 nM in data set [4]; 2990 nM in [5]; 3.65 µM in data set [6]; 6.03 µM in data set [7]; 3.15 µM in data set [8]; 8.24 µM in data set [9]. The IC50 in data set [2] was found to be 1.4 nM; in data set [12], 1460 nM; in data set [3], 1360 nM; in data set [14], 4.01 µM. Also, the result in [10] was Active. Moreover, the inhibition entry in [11] was “Active”. For the same compound, the Stability entry in data set [1] is reported as “Stable”. Besides, the inhibition in data set [13] came to 60%.
As to `CC[C@H](C)[C@H](NC(=O)[C@H](CCC(=O)O)NC(=O)[C@@H]1CCCN1C(=O)[C@H](Cc1cnc[nH]1)NC(=O)[C@H](CC(=O)O)NC(=O)[C@H](Cc1ccc(O)cc1)NC(=O)[C@H](CC(N)=O)NC(=O)[C@H](CS)NC(=O)[C@H](CCCNC(=N)N)NC(=O)[C@@H]1CCCN1C(=O)[C@H](CC(=O)O)NC(=O)[C@H](CO)NC(=O)[C@H](CS)NC(=O)[C@H](CS)NC(=O)CN)C(=O)N[C@@H](CS)C(N)=O`, the IC50 in data set [4] is 320 nM; in [2] it was 70 nM. Besides, in data set [15], the Ratio IC50 is 4.6.
